In US11358989B2, “Apratyramide therapeutic agents and methods of treatment” (University of Florida Research Foundation, Incorporated, priority 2017, dated 2022):
“Also recorded” adds a separate entry of the source.

Experiments:
PDGFB = PDGFB transcript level in HaCaT cells (RT-qPCR); type: cell-based, human; conditions: 16 h
Protocol: (§1) HaCaT cells were seeded in 6-well plates at a density of 2×10^5 per well and incubated further for 24 h in supplement-free medium prior to treatment. RNA was isolated at 3, 12 or 16 h post treatment using the RNeasy mini kit (QIAGEN, Valencia, Calif.). Total RNA was quantified using NanoDrop 2000. From 2 μg of total RNA, cDNA synthesis was done using SuperScript II Reverse Transcriptase (Invitrogen, Carlsbad, Calif.) and oligo (dT) (Invitrogen).
(§2) qPCR after reverse transcription (RT-qPCR) was performed on a 25 μL reaction solution containing a 0.3 μL aliquot of cDNA, 12.5 μL of TaqMan gene expression assay mix, 1.25 μL of probes, and 11 μL RNase-free water. qPCR was carried out on an ABI 7300 sequence detection system using the thermocycler program: 2 min at 50° C., 10 min at 95° C., and 15 s at 95° C. (40 cycles) and 1 min at 60° C. Each experiment was performed in triplicate. VEGF-A (Hs00900055_m1), PDGFB (Hs00266645_m1) and bFGF (Hs00966522_m1) were used as target genes, while GAPDH (Hs02758991_g1) was used as endogenous control. Graphs and data analysis were performed using the Prism software and analyzed using unpaired t test.

ATF4 = ATF4 transcript (microarray) and protein (immunoblot) in HaCaT cells; type: cell-based, human
Protocol: (§3) HaCaT cells were seeded in 6-well clear bottom plate the day before treatment. The next day, cells were treated with 1 or solvent control (DMSO). 24 h later, whole cell lysates were collected using PhosphoSafe buffer (EMD Chemicals, Inc, Gibbstown, N.J.). Protein concentrations were measured with the BCA Protein Assay kit (Thermo Fisher Scientific, Rockford, Ill.). Lysates containing equal amounts of protein were separated by SDS polyacrylamide gel electrophoresis (4-12%), transferred to polyvinylidene difluoride membranes, probed with primary and secondary antibodies, and detected with the SuperSignal West Femto Maximum Sensitivity Substrate (Thermo Fisher Scientific). BIP, IRE1, β-actin and secondary anti-mouse and rabbit antibodies were from Cell Signaling Technology, Inc (Danvers, Mass.). ATF4 and ORP150 antibodies were obtained from Santa Cruz (Calif.).
(§4) RNA was analyzed using a NanoDrop spectrophotometer and Agilent 2100 Bioanalyzer to determine the RNA concentration and quality, respectively. RNA samples were processed using the GeneChip WT PLUS Reagent Kit (Affymetrix, Santa Clara, Calif.) according to the manufacturer's instruction. In brief, 250 ng of RNA were used for cDNA synthesis by reverse transcription, and the cDNA was utilized as a template for the biotin-labeled RNA prepared by in vitro transcription reaction. […]

HUVECs = assay: In vitro angiogenesis assay (matrigel, HUVECs, HaCaT conditioned medium); type: cell-based, human; conditions: HUVECs 14 h, vs CM-DMSO
Protocol: HaCaT cells were seeded in 12-well plates in complete growth medium the day before treatment. The next day, the medium was replaced with fresh medium followed by the treatment of 1 or solvent control. After 24 h or incubation, the conditioned medium was collected for the in vitro angiogenesis assay.
HUVECs (Lonza) were used at passage 4 for this assay. In vitro Angiogenesis Assay Kit (Chemicon) was used according to the manufacturer's recommendation. Briefly, an ice-cold mixture of ECMatrix was transferred into a precooled 96-well plate. After the matrix solution had solidified (>1 h incubation at 37° C., 10,000 cells were mixed with the CM or EGM with or without the presence of VEGF-A protein, 100 ng/mL and plated into each well. After incubation at 37° C. for 14 h, images were captured for each well using a Nikon inverted microscope equipped with NIS-Elements software. Branch point counting was used as quantification method. Three random microscope view-fields were counted and the number of branch points was averaged for each well. Branch point for each group was calculated by averaging eight replicates from two independent experiments.

VEGF-A [1] = assay: VEGF-A transcript level in HCT116 cells (RT-qPCR); type: cell-based, human; conditions: 16 h
Protocol: (§5) Human keratinocyte HaCaT cells and human colon cancer HCT116 cells were cultured in Dulbecco's modified Eagle's medium (DMEM) supplemented with 10% fetal bovine serum at 37° C. humidified air and 5% CO2. Human normal colon (CCD-18Co) cells (ATCC) were cultured in Eagle's minimal essential medium (EMEM) supplemented with 10% fetal bovine serum at 37° C. humidified air and 5% CO2. Human Umbilical Vein Endothelial Cells (HUVEC, cat #CC-2519, Lonza) were cultured in EGM (Lonza cat #CC-3124) under the same condition.
as §2

ORP150 = ORP150 transcript (microarray) and protein (immunoblot) in HaCaT cells; type: cell-based, human
Protocol: as §3, §4

HCT116 cells = assay: Cell viability assay (MTT), HCT116; type: cell-based, human; conditions: 48 h
Protocol: as §5
(§6) Cells were seeded in a 96-well clear bottom plate, and 24 h later cells were treated with various concentrations of the apratyramide or solvent control (DMSO). After 48 h of incubation, cell viability was detected using MTT according to the manufacturer's instructions (Promega, Madison, Wis.). Nonlinear regression analysis was carried out using GraphPad Prism software for IC50 value calculations.

VEGF-A [2] = assay: VEGF-A mRNA in ablated rabbit corneas, ex vivo organ culture; conditions: ablated rabbit corneas ex vivo, 25, 50 or 100 μM, 18 h
Protocol: The central 6 mm diameter area of corneas of twelve fresh rabbit globes (Pelfreeze) was ablated to a total depth of 155 microns using a Nidek excimer laser in phototherapeutic keratectomy mode. Ablated corneas were then surgically dissected from the rabbit globes using sterile scalpel and forceps, grasping only the scleral rims and not the clear cornea. The corneas were cultured in DMEM/F-12 1:1 (Thermo Fisher) containing 40 mM HEPES, 10% FBS, 0.01% dextran 40 (Tokyo Chemical Industry, Co., Ltd.) and 0.025% chondroitin sulfate (Chem-Impex International, Inc.) in 6-well plates. Twelve corneas were randomly distributed into four groups (three corneas in each group): DMSO, 25 μM, 50 μM or 100 μM apratyramide. […]
The central scar-like tissue from each cornea was collected using an 8 mm punch biopsy. […] The purified cDNA was then quantified using nanodrop and used to generate a standard curve. Serial 10-fold dilutions of the quantified cDNA amplicon were subjected to RT-qPCR using SYBR Select Master Mix (Applied Biosystems). […] The mass-normalized Ct values for the apratyramide treatment groups and DMSO control group (n=3 biological replicates per group) were analyzed by a one-way ANOVA (α=0.05, Microsoft Excel 2010, Analysis Tool Pack) followed by Tukey's HSD post hoc test manually calculated in Excel 2010 (FIG. 8).

CCD-18Co cells = assay: Cell viability assay (MTT), CCD-18Co; type: cell-based, human; conditions: 48 h
Protocol: as §5, §6

VEGF-A [3] = assay: VEGF-A transcript level in HaCaT cells (RT-qPCR); type: cell-based, human; conditions: for VEGF-A mRNA level induction: 30 μM; for increase of VEGF-A transcript levels: 16 h
Protocol: as §5
as §1, with “RNA was isolated at 3, 12 or 16 h post treatment using the RNeasy mini kit (QIAGEN, Valencia, Calif.).” left out
as §2

bFGF = bFGF transcript level in HaCaT cells (RT-qPCR); type: cell-based, human; conditions: 16 h
Protocol: as §1, §2

HaCaT cells [4] = assay: Cell viability assay (MTT), HaCaT; type: cell-based, human; conditions: 24 h
Protocol: as §5
Cells were seeded in a 96-well clear bottom plate, and 24 h later cells were treated with various concentrations of the apratyramide or solvent control (DMSO). […] Nonlinear regression analysis was carried out using GraphPad Prism software for IC50 value calculations.

VEGF-A [5] = assay: Measurement of human VEGF-A secretion from HaCaT cells (AlphaLISA); type: cell-based; conditions: 24 h
Protocol: as §5
HaCaT cells were seeded in a 96-well clear bottom plate. Cells were treated with various concentrations of apratyramide or solvent control (DMSO). After 24 h incubation, culture supernatants were collected for detection of VEGF-A using AlphaLISA kits (PerkinElmer, Waltham, Mass.) following the manufacturer's instruction. Briefly, acceptor bead and anti-VEGF-A antibody were incubated with the supernatants for 60 min, donor beads were added later and incubated for another 30 min. Signal was detected using Envision (PerkinElmer). Levels of VEGF-A (pg/mL) were calculated using a standard curve and then normalized based on cell numbers.

HaCaT cells [6] = assay: Transcriptome profiling of HaCaT cells (Human Transcriptome Array 2.0, IPA); type: cell-based
Protocol: as §1
as §4, with “reaction. The labeled RNA was further purified, fragmented, and hybridized with rotation at 45° C. for 16 h to the GeneChip™ Human Transcriptome Array 2.0. The arrays were washed and stained using the GeneChip Hybridization Wash and Stain kit on an Affymetrix Fluidics Station 450. The chips were scanned using a GeneChip 7G Scanner.” for “reaction.”

IRE1 = IRE1 transcript (microarray) and protein (immunoblot) in HaCaT cells; type: cell-based, human
Protocol: as §3, §4

For `CC[C@H](C)[C@@H](OC(=O)[C@H](Cc1ccc(OC)cc1)N(C)C)C(=O)N[C@H](C(=O)N(C)[C@@H](Cc1ccc(O)cc1)C(=O)N(C)[C@@H](Cc1ccc(O)cc1)C(=O)OC)C(C)C` [Compound 1, Apratyramide], the PDGFB transcript level (PDGFB) was “stimulated”, the “ATF4 transcript and protein levels” value (ATF4) was “up-regulated; also recorded: activated” and the “angiogenesis (tube-like structure formation) with conditioned medium” value (HUVECs; HaCaT culture treated with 30 μM for 24 h) was “rescued”. The “angiogenesis (tube-like structure formation) with conditioned medium” value (HUVECs; HaCaT culture treated with 50 μM for 24 h) was “rescued”, the VEGF-A transcript level (VEGF-A [1]) was “up-regulated” and the VEGF-A transcript levels (VEGF-A [1]; fifty micro-molar) was “doubled”. The “ORP150 transcript and protein levels” value (ORP150) was “up-regulated”, the “cytotoxicity (antiproliferative effect)” value (HCT116 cells) was “minimal cytotoxicity” and the “VEGF-A mRNA in the cornea” value (VEGF-A [2]) was “dose-dependent increase”. For the same molecule, the “effects on cell viability” value (CCD-18Co cells) was “negligible effects”, the “VEGF-A mRNA level induction” value (VEGF-A [3]; 4 h) was 1.7 fold and the “VEGF-A mRNA level induction” value (VEGF-A [3]; 12 h) was “greater induction effect”. For the same molecule, the “increase of VEGF-A transcript levels” value (VEGF-A [3]; 31.6 μM) was 5 fold, the “increase of VEGF-A transcript levels” value (VEGF-A [3]; 50 μM) was 7 fold and the bFGF transcript level (bFGF) was “stimulated”. The cytotoxicity (HaCaT cells [4]; 31.6 μM) was “without causing cytotoxicity”, the cell viability (HaCaT cells [4]; 50 μM) was “Around ninety-percent” and the “increase of VEGF-A secretion” value (VEGF-A [5]; 31.6 μM) was 1.3 fold. The “increase of VEGF-A secretion” value (VEGF-A [5]; 50 μM) was 1.5 fold, the VEGF-A in microarray (HaCaT cells [6]; 30 μM, 12 h) was “one of the most up-regulated genes” and the microRNAs in microarray (HaCaT cells [6]; 12 h treatment) was “down-regulation of several microRNAs”. For the same molecule, the “IRE1 transcript and protein levels” value (IRE1) was “up-regulated”.
